Data from paper PMC7769008 (Journal of medicinal chemistry, 2020).

Conditions: pH 7.4

## O=C(Cc1ccc(Br)cc1)NCCCn1c(=O)c2cc(F)ccc2n2c(=S)[nH]nc12 [Compound 125, 2-(4-Bromophenyl)-N-(3-(7-fluoro-5-oxo-1-thioxo-1,2-dihydro-[1,2,4]triazolo[4,3-a]quinazolin-4(5H)-yl)propyl)acetamide]
  PAMPA: 767 ×10⁻⁶ cm/s

## O=c1c2cc(Br)ccc2n2c(=S)[nH]nc2n1CCc1ccccc1 [Compound 41, 7-Bromo-4-phenethyl-1-thioxo-2,4-dihydro-[1,2,4]triazolo[4,3-a]quinazolin-5(1H)-one]
  PAMPA: 162 ×10⁻⁶ cm/s

## O=c1c2cc(F)ccc2n2cnnc2n1CCc1ccccc1 [Compound 18, 7-Fluoro-4-phenethyl-[1,2,4]triazolo[4,3-a]quinazolin-5(4H)-one]
  PAMPA: 924 ×10⁻⁶ cm/s

## O=C(NCCCn1c(=O)c2cc(F)ccc2n2c(=S)[nH]nc12)C1CCCC1 [Compound 108, N-(3-(7-Fluoro-5-oxo-1-thioxo-1,2-dihydro-[1,2,4]triazolo[4,3-a]-quinazolin-4(5H)-yl)propyl)cyclopentanecarboxamide]
  PAMPA: 155 ×10⁻⁶ cm/s

## O=c1c2cc(F)ccc2n2c(=S)[nH]nc2n1Cc1ccccc1 [Compound 52, 4-Benzyl-7-fluoro-1-thioxo-2,4-dihydro-[1,2,4]triazolo[4,3-a]-quinazolin-5(1H)-one]
  PAMPA: 841 ×10⁻⁶ cm/s

## O=C(Cc1ccccc1C(F)(F)F)NCCCn1c(=O)c2cc(F)ccc2n2c(=S)[nH]nc12 [Compound 131, N-(3-(7-Fluoro-5-oxo-1-thioxo-1,2-dihydro-[1,2,4]triazolo[4,3-a]-quinazolin-4(5H)-yl)propyl)-2-(2-(trifluoromethyl)phenyl)-acetamide]
  PAMPA: 825 ×10⁻⁶ cm/s

## CN(C)c1ccc2c(c1)c(=O)n(CCc1ccccc1)c1n[nH]c(=S)n21 [Compound 45, 7-(Dimethylamino)-4-phenethyl-1-thioxo-2,4-dihydro-[1,2,4]-triazolo[4,3-a]quinazolin-5(1H)-one]
  PAMPA: 356 ×10⁻⁶ cm/s

## O=c1c2cc(F)ccc2n2c(=S)[nH]nc2n1CCC1CCC(F)(F)CC1 [Compound 93, 4-(2-(4,4-Difluorocyclohexyl)ethyl)-7-fluoro-1-thioxo-2,4-dihydro-[1,2,4]triazolo[4,3-a]quinazolin-5(1H)-one]
  PAMPA: 201 ×10⁻⁶ cm/s

## COc1ccc(CC(=O)NCCCn2c(=O)c3cc(F)ccc3n3c(=S)[nH]nc23)cc1 [Compound 130, N-(3-(7-Fluoro-5-oxo-1-thioxo-1,2-dihydro-[1,2,4]triazolo[4,3-a]-quinazolin-4(5H)-yl)propyl)-2-(4-methoxyphenyl)acetamide]
  PAMPA: 233 ×10⁻⁶ cm/s

## O=c1c2cc(F)ccc2n2c(=S)[nH]nc2n1CC1CC1 [Compound 79, 4-(Cyclopropylmethyl)-7-fluoro-1-thioxo-2,4-dihydro-[1,2,4]-triazolo[4,3-a]quinazolin-5(1H)-one]
  PAMPA: 46.0 ×10⁻⁶ cm/s

## COc1ccccc1CC(=O)NCCCn1c(=O)c2cc(F)ccc2n2c(=S)[nH]nc12 [Compound 128, N-(3-(7-Fluoro-5-oxo-1-thioxo-1,2-dihydro-[1,2,4]triazolo[4,3-a]-quinazolin-4(5H)-yl)propyl)-2-(2-methoxyphenyl)acetamide]
  PAMPA: 379 ×10⁻⁶ cm/s

## O=c1c2cc(F)ccc2n2c(=S)[nH]nc2n1CCN1CCOCC1 [Compound 90, 7-Fluoro-4-(2-morpholinoethyl)-1-thioxo-2,4-dihydro-[1,2,4]-triazolo[4,3-a]quinazolin-5(1H)-one]
  PAMPA: 67.0 ×10⁻⁶ cm/s

## O=c1c2cc(Cl)ccc2n2c(=S)[nH]nc2n1CCC(F)(F)F [Compound 55, 7-Chloro-1-thioxo-4-(3,3,3-trifluoropropyl)-2,4-dihydro-[1,2,4]-triazolo[4,3-a]quinazolin-5(1H)-one]
  PAMPA: 257 ×10⁻⁶ cm/s

## CC(C)(C)OC(=O)N1CC(CCn2c(=O)c3cc(F)ccc3n3c(=S)[nH]nc23)C1 [Compound 86, tert-Butyl 3-(2-(7-fluoro-5-oxo-1-thioxo-1,2-dihydro-[1,2,4]-triazolo[4,3-a]quinazolin-4(5H)-yl)ethyl)azetidine-1-carboxylate]
  PAMPA: 229 ×10⁻⁶ cm/s

## O=C(O)CCC(=O)NCCCn1c(=O)c2cc(F)ccc2n2c(=S)[nH]nc12 [Compound 106, 4-((3-(7-Fluoro-5-oxo-1-thioxo-1,2-dihydro-[1,2,4]triazolo[4,3-a]quinazolin-4(5H)-yl)propyl)amino)-4-oxobutanoic Acid]
  PAMPA: <1 ×10⁻⁶ cm/s

## O=C(CN1CCOCC1)NCCCn1c(=O)c2cc(F)ccc2n2c(=S)[nH]nc12 [Compound 118, N-(3-(7-Fluoro-5-oxo-1-thioxo-1,2-dihydro-[1,2,4]triazolo[4,3-a]-quinazolin-4(5H)-yl)propyl)-2-morpholinoacetamide]
  PAMPA: <1 ×10⁻⁶ cm/s

## O=c1c2cc(F)ccc2n2c(=S)[nH]nc2n1CCc1cccnc1 [Compound 84, 7-Fluoro-4-(2-(pyridin-3-yl)ethyl)-1-thioxo-2,4-dihydro-[1,2,4]-triazolo[4,3-a]quinazolin-5(1H)-one]
  PAMPA: <1 ×10⁻⁶ cm/s

## O=C(Cc1cccnc1)NCCCn1c(=O)c2cc(F)ccc2n2c(=S)[nH]nc12 [Compound 137, N-(3-(7-Fluoro-5-oxo-1-thioxo-1,2-dihydro-[1,2,4]triazolo[4,3-a]-quinazolin-4(5H)-yl)propyl)-2-(pyridine-3-yl)acetamide]
  PAMPA: 21.0 ×10⁻⁶ cm/s

## O=c1c2ccc(F)cc2n2c(=S)[nH]nc2n1CCc1ccccc1 [Compound 47, 8-Fluoro-4-phenethyl-1-thioxo-2,4-dihydro-[1,2,4]triazolo[4,3-a]quinazolin-5(1H)-one]
  PAMPA: 91.0 ×10⁻⁶ cm/s

## O=C(Cc1cccc(Cl)c1)NCCCn1c(=O)c2cc(F)ccc2n2c(=S)[nH]nc12 [Compound 124, 2-(3-Chlorophenyl)-N-(3-(7-fluoro-5-oxo-1-thioxo-1,2-dihydro-[1,2,4]triazolo[4,3-a]quinazolin-4(5H)-yl)propyl)acetamide]
  PAMPA: 861 ×10⁻⁶ cm/s

## N#Cc1ccccc1CC(=O)NCCCn1c(=O)c2cc(F)ccc2n2c(=S)[nH]nc12 [Compound 133, 2-(2-Cyanophenyl)-N-(3-(7-fluoro-5-oxo-1-thioxo-1,2-dihydro-[1,2,4]triazolo[4,3-a]quinazolin-4(5H)-yl)propyl)acetamide]
  PAMPA: 156 ×10⁻⁶ cm/s

## O=C(NCCCn1c(=O)c2cc(F)ccc2n2c(=S)[nH]nc12)C1CCOCC1 [Compound 115, N-(3-(7-Fluoro-5-oxo-1-thioxo-1,2-dihydro-[1,2,4]triazolo[4,3-a]-quinazolin-4(5H)-yl)propyl)tetrahydro-2H-pyran-4-carboxamide]
  PAMPA: 8.0 ×10⁻⁶ cm/s

## CC(=O)Nc1ccc2c(c1)c(=O)n(CCc1ccccc1)c1n[nH]c(=S)n21 [Compound 44, N-(5-Oxo-4-phenethyl-1-thioxo-1,2,4,5-tetrahydro-[1,2,4]-triazolo[4,3-a]quinazolin-7-yl)acetamide]
  PAMPA: 253 ×10⁻⁶ cm/s

## O=c1c2cc(F)ccc2n2c(=S)[nH]nc2n1CCN1CCC(F)(F)CC1 [Compound 89, 4-(2-(4,4-Difluoropiperidin-1-yl)ethyl)-7-fluoro-1-thioxo-2,4-di-hydro-[1,2,4]triazolo[4,3-a]quinazolin-5(1H)-one]
  PAMPA: 234 ×10⁻⁶ cm/s

## NS(=O)(=O)CCCC(=O)NCCCn1c(=O)c2cc(F)ccc2n2c(=S)[nH]nc12 [Compound 107, N-(3-(7-Fluoro-5-oxo-1-thioxo-1,2-dihydro-[1,2,4]triazolo[4,3-a]-quinazolin-4(5H)-yl)propyl)-4-sulfamoylbutanamide]
  PAMPA: 3.0 ×10⁻⁶ cm/s

## O=C(Cc1ccccc1)NCCCn1c(=O)c2cc(F)ccc2n2c(=S)[nH]nc12 [Compound 120, N-(3-(7-Fluoro-5-oxo-1-thioxo-1,2-dihydro-[1,2,4]triazolo[4,3-a]-quinazolin-4(5H)-yl)propyl)-2-phenylacetamide]
  PAMPA: 248 ×10⁻⁶ cm/s

## O=c1c2ccncc2n2c(=S)[nH]nc2n1CCc1ccccc1 [Compound 50, 4-Phenethyl-1-thioxo-2,4-dihydropyrido[4,3-e][1,2,4]triazolo-[4,3-a]pyrimidin-5(1H)-one]
  PAMPA: 202 ×10⁻⁶ cm/s

## O=c1c2cc(F)ccc2n2c(=S)[nH]nc2n1CCN1CCCCC1 [Compound 88, 7-Fluoro-4-(2-(piperidin-1-yl)ethyl)-1-thioxo-2,4-dihydro-[1,2,4]-triazolo[4,3-a]quinazolin-5(1H)-one]
  PAMPA: 358 ×10⁻⁶ cm/s

## CC(C)(C)OC(=O)NC1CCC(C(=O)NCCCn2c(=O)c3cc(F)ccc3n3c(=S)[nH]nc23)CC1 (centres unmarked) [Compound 110, tert-Butyl (4-((3-(7-fluoro-5-oxo-1-thioxo-1,2-dihydro-[1,2,4]-triazolo[4,3-a]quinazolin-4(5H)-yl)propyl)carbamoyl)cyclohexyl)-carbamate]
  PAMPA: 330 ×10⁻⁶ cm/s

## O=c1c2cc(F)ccc2n2c(=S)[nH]nc2n1CCc1ccc(Cl)cc1 [Compound 82, 4-(4-Chlorophenethyl)-7-fluoro-1-thioxo-2,4-dihydro-[1,2,4]-triazolo[4,3-a]quinazolin-5(1H)-one]
  PAMPA: <1 ×10⁻⁶ cm/s

## O=c1c2cc(F)ccc2n2c(=S)[nH]nc2n1CCCO [Compound 66, 7-Fluoro-4-(3-hydroxypropyl)-1-thioxo-2,4-dihydro-[1,2,4]-triazolo[4,3-a]quinazolin-5(1H)-one]
  PAMPA: 222 ×10⁻⁶ cm/s

## O=c1c2cccc(F)c2n2c(=S)[nH]nc2n1CCc1ccccc1 [Compound 48, 9-Fluoro-4-phenethyl-1-thioxo-2,4-dihydro-[1,2,4]triazolo[4,3-a]quinazolin-5(1H)-one]
  PAMPA: 141 ×10⁻⁶ cm/s

## Nc1nnc2n(CCc3ccccc3)c(=O)c3cc(F)ccc3n12 [Compound 16, 1-Amino-7-fluoro-4-phenethyl-[1,2,4]triazolo[4,3-a]quinazolin-5(4H)-one]
  PAMPA: 885 ×10⁻⁶ cm/s

## O=c1c2cc(F)ccc2n2c(=S)[nH]nc2n1CCc1ccccc1 [Compound 40, 7-Fluoro-4-phenethyl-1-thioxo-2,4-dihydro-[1,2,4]triazolo[4,3-a]quinazolin-5(1H)-one]
  PAMPA: 77.0 ×10⁻⁶ cm/s

## CC(CN(C)C)n1c(=O)c2cc(F)ccc2n2c(=S)[nH]nc12 (centres unmarked) [Compound 71, 4-(1-(Dimethylamino)propan-2-yl)-7-fluoro-1-thioxo-2,4-dihydro-[1,2,4]triazolo[4,3-a]quinazolin-5(1H)-one]
  PAMPA: 186 ×10⁻⁶ cm/s
